Laboratory results as given in ChEMBL document CHEMBL1121380, “Perspective on the design and biochemical pharmacology of inhibitors of thymidylate synthetase” (J Med Chem, 1980).
Blank lines part the entries; values can stand above or below the molecule they belong to.

Assays:
[1] = Michaelis-Menten constant for Uridine phosphorylase
[2] = In vitro inhibition against mammalian Uridine phosphorylase
[3] = substrate: O=c1[nH]c(=S)ccn1[C@H]1C[C@H](O)[C@@H](COP(=O)(O)O)O1; experiment: Michaelis-Menten constant for dTMP synthetase; conditions: Lacticaseibacillus casei

- Km [1]: 1000 µM
Molecule: C[C@H]1OC(n2ccc(=O)[nH]c2=O)[C@H](O)[C@@H]1O (stereo partly drawn)

- Ki [2]: ~1000 nM
Molecule: Oc1ncc(Cc2ccccc2)c(O)n1

B1: Thymidylate synthase (Lactobacillus casei), P00469 (protein)
chain: MLEQPYLDLAKKVLDEGHFKPDRTHTGTYSIFGHQMRFDLSKGFPLLTTKKVPFGLIKSELLWFLHGDTNIRFLLQHRNHIWDEWAFEKWVKSDEYHGPDMTDFGHRSQKDPEFAAVYHEEMAKFDDRVLHDDAFAAKYGDLGLVYGSQWRAWHTSKGDTIDQLGDVIEQIKTHPYSRRLIVSAWNPEDVPTMALPPCHTLYQFYVNDGKLSLQLYQRSADIFLGVPFNIASYALLTHLVAHECGLEVGEFIHTFGDAHLYVNHLDQIKEQLSRTPRPAPTLQLNPDKHDIFDFDMKDIKLLNYDPYPAIKAPVAV
- Km [3]: 70 µM
